Data taken from patent US20090238808A1, “Process for the identification of novel enzyme interacting compounds” (priority 2005, published 2009).

Tests used:
FER = FER (Homo sapiens, UniProt P16591); assay: Biochemical kinase activity assay (Invitrogen SelectScreen); settings: read-out: % inhibition, FER
GCK = GCK (Homo sapiens, UniProt Q12851); assay: as above; settings: read-out: % inhibition, GCK
MER = target: T1, MER (Homo sapiens, UniProt Q12866); assay: as above
T1 sequence (Q12866 21-999): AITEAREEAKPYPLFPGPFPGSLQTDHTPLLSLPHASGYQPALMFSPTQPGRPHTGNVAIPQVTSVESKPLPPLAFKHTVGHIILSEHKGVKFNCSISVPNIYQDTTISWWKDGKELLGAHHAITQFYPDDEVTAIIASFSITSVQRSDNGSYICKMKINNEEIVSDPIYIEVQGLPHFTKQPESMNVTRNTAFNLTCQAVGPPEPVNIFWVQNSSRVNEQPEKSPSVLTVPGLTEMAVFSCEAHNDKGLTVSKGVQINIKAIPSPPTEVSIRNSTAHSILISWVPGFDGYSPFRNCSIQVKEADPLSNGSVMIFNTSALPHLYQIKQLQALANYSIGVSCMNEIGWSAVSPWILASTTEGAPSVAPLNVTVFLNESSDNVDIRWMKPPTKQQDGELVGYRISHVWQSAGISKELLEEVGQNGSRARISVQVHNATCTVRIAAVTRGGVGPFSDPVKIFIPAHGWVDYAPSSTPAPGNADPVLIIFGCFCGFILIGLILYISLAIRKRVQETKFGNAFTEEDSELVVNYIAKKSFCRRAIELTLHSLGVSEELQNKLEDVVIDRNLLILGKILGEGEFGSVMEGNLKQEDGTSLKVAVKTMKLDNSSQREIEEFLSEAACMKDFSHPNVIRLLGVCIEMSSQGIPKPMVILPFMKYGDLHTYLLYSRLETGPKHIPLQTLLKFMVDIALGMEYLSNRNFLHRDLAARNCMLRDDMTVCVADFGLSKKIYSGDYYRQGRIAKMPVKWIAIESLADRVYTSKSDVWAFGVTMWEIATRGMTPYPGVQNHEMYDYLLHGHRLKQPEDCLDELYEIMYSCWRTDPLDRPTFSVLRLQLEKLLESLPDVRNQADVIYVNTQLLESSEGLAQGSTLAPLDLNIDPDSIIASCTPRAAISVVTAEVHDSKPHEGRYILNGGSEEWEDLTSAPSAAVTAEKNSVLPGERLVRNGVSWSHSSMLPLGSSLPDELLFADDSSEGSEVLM

DDR2 = target: T2, DDR2 (Homo sapiens, UniProt Q16832); assay: Biochemical kinase activity assay (Upstate IC50Profiler Express); settings: Upstate IC50Profiler Express service
T2 construct: purchased Upstate (IC50Profiler Express service)

CSK = CSK (Homo sapiens, UniProt P41240); settings: purified kinase; published data; cited from earlier work

Chain of FER (P16591 whole entry): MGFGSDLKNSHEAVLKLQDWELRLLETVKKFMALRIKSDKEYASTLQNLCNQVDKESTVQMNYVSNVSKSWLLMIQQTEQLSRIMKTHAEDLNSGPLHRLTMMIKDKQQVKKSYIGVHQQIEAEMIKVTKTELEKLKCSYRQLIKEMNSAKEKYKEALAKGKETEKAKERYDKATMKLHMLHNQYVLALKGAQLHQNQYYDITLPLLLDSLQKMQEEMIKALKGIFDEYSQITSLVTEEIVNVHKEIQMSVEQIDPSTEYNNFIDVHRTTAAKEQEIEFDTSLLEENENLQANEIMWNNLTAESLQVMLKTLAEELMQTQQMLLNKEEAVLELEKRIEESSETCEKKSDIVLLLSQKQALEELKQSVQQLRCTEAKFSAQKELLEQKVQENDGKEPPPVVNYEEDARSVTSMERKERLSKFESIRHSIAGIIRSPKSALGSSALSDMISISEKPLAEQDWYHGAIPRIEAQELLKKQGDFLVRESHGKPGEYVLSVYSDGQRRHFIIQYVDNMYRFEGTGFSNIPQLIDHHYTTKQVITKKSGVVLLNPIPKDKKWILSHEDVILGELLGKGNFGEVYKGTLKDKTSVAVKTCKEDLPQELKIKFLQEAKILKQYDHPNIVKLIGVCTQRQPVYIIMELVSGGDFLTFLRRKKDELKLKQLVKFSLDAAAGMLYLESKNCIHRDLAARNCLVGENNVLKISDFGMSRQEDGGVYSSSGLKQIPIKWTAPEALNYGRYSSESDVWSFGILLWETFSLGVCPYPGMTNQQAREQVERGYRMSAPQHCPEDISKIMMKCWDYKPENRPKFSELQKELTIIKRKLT
Chain of GCK (Q12851 whole entry): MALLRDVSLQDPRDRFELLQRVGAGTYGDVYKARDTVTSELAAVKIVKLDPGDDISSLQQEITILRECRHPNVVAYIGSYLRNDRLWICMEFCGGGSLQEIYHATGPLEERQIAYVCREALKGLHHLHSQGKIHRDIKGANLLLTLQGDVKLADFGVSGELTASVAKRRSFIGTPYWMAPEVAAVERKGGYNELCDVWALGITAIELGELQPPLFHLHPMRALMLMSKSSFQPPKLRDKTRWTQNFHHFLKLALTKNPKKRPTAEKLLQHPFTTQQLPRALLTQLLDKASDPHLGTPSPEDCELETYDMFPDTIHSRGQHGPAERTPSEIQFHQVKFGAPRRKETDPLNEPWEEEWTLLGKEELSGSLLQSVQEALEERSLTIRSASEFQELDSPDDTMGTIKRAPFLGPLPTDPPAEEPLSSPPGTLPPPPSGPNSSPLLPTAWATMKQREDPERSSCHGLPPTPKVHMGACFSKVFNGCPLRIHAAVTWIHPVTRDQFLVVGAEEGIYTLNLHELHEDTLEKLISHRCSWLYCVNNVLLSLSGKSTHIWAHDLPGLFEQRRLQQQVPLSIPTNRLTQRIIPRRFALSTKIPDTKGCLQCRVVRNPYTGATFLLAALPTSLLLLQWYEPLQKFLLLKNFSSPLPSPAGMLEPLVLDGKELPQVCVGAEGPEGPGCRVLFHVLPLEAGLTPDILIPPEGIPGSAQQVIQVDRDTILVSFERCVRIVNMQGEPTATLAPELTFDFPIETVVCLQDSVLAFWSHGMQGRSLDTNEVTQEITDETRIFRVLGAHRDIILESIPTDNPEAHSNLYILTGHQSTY
T2 sequence (Q16832 22-855): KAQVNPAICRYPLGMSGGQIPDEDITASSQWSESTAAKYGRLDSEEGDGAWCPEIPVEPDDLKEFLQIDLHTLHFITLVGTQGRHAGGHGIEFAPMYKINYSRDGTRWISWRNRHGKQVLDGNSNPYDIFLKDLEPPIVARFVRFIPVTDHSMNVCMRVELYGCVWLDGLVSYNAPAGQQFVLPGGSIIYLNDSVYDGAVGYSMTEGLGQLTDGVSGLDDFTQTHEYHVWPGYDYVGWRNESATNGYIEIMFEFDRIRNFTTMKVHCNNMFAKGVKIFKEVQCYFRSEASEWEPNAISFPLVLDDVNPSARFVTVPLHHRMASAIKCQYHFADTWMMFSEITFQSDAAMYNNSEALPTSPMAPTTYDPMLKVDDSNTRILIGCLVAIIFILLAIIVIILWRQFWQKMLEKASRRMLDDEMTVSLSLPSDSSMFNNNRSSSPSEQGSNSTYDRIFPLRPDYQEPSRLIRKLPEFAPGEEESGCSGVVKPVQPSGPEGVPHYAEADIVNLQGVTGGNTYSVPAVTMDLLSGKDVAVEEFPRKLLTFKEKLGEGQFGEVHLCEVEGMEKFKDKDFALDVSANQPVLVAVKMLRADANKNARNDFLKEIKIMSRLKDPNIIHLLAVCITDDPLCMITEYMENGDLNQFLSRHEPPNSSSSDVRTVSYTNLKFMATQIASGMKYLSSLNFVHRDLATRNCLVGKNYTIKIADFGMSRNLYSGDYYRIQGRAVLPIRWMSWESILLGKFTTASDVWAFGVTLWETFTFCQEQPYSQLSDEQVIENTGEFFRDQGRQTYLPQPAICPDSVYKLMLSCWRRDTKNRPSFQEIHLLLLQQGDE

inhibition at 5 µM (FER) [%]	inhibition at 5 µM (GCK) [%]	inhibition at 5 µM (MER; read-out: % inhibition, MER) [%]	IC50 (DDR2) [nM]	IC50 (MER) [nM]	SMILES	IC50 (CSK) [nM]
36	60	40			Cc1nc(Nc2ncc(C(=O)Nc3c(C)cccc3Cl)s2)cc(N2CCN(CCO)CC2)n1 [dasatinib]	
			4900	15.7	COc1cc(Nc2c(C#N)cnc3cc(OCCCN4CCN(C)CC4)c(OC)cc23)c(Cl)cc1Cl [bosutinib]	310
